Measurements reported in patent publication US9096582B2, “Gamma secretase modulators” (MERCK SHARP & DOHME CORP, priority 2011, dated 2015).
pIC50: −log10 of the molar value.

Key:
γ-secretase = target: T1, γ-secretase (Homo sapiens, UniProt P49768); assay: Cell based γ-secretase assay (Aβ42 in conditioned media, MSD sandwich immunoassay); conditions: HEK 293 cells stably transfected with APPsw-lon; 5 hrs treatment; means of two independent experiments
T1 construct: Human embryonic kidney (HEK) 293 cells stably transfected with APPsw-lon in pcDNA3.1 vector; endogenous in cells; host or cells: HEK293 cells stably transfected with APPsw-lon (substrate only) in pcDNA3.1
Method: Cell Based γ-Secretase Assay (In Vitro Assay Method)
Human embryonic kidney (HEK) 293 cells stably transfected with APPsw-lon in pcDNA3.1 vector (Invitrogen) were treated with gamma secretase modulator (GSM) compounds (see Table below) for 5 hrs. Aβ in conditioned media was measured using MesoScale Discovery (MSD) technology based sandwich immunoassays. Aβ42 was measured using a pair of labeled antibodies TAG-G2-11 (described in Ida, N. et al., Journal of Biological Chemistry, 1996, 271, p. 22908-22914) and biotin-4G8 (Covance); γ-secretase activity is expressed as the concentration of compound producing 50% inhibition of the enzyme activity. The data presented below in the Table were the means of two independent experiments.

Rat CSF Aβ42 = assay: Cerebrospinal fluid (CSF) Aβ analysis (in vivo assay method); conditions: male CD rats; oral, 30 mg/kg in 20% hydroxypropyl β-cyclodextrin; CSF collected three hours after dosing
Method: Cerebrospinal Fluid (CSF) Aβ Analysis (In Vivo Assay Method)
Male CD rats (100 g; Charles River Laboratories) were orally administered a GSM compound (formulated in 20% hydroxypropyl β-cyclodextin; 5 ml/kg). Three hours later, the animals were euthanized with excess CO2, and CSF was immediately collected from the cisterna magna and frozen on dry ice; only clear samples were analyzed. Rat CSF Aβ42 was analyzed using AlphaLISA Amyloid Assay kits (Perkin-Elmer) according to the manufacturer's instructions. In vivo activity of the tested GSM compounds is expressed as the percentage of Aβ42 reduction in CSF after administration of the compound and is presented in the Table.

| Structure (SMILES) | pIC50 (γ-secretase) | % CSF Aβ42 Reduction After 30 mg/kg Dosing (Rat CSF Aβ42) |
| --- | --- | --- |
| COc1cc(-c2noc3c2CCCC3NCc2ccc(F)cc2)ccc1-n1cnc(C)c1 (racemic) | 6.88 |  |
| COc1cc(-c2noc3c2CCCC3NCC(F)(F)F)ccc1-n1cnc(C)c1 (racemic) | 6.33 |  |
| COc1cc(-c2noc3c2CCCC3N[C@H](C)c2ccc(F)cc2)ccc1-n1cnc(C)c1 (mixture of isomers) | 6.59 |  |
| COc1cc(-c2noc3c2CCCC3OCc2cc(F)cc(F)c2)ccc1-n1cnc(C)c1 (racemic) [7-(3,5-Difluorobenzyloxy)-3-(3-methoxy-4-(4-methyl-1H-imidazol-1-yl)phenyl)-4,5,6,7-tetrahydrobenzo[d]isoxazole] | 6.29 |  |
| COc1cc(-c2noc3c2CCCC3(O)c2cc(F)cc(F)c2)ccc1-n1cnc(C)c1 (racemic) [7-(3,5-Difluorophenyl)-3-(3-methoxy-4-(4-methyl-1H-imidazol-1-yl)phenyl)-4,5,6,7-tetrahydrobenzo[d]isoxazol-7-ol] | 6.72 | 19% |
| COc1cc(-c2noc3c2CCCC3c2cc(F)cc(F)c2)ccc1-n1cnc(C)c1 (racemic) [7-(3,5-Difluorophenyl)-3-(3-methoxy-4-(4-methyl-1H-imidazol-1-yl)phenyl)-4,5,6,7-tetrahydrobenzo[d]isoxazole] | 6.95 | 0% |
| COc1cc(-c2noc3c2CCCC3Nc2ccc(F)cc2)ccc1-n1cnc(C)c1 (single isomer, unassigned) [drawing 25, N-(4-Fluorophenyl)-3-(3-methoxy-4-(4-methyl-1H-imidazol-1-yl)phenyl)-4,5,6,7-tetrahydrobenzo[d]isoxazol-7-amine] | 7.40 | 58% |

The remaining compounds from weak to strong by pIC50 (γ-secretase), led by results:

| pIC50 (γ-secretase) | Structure (SMILES) | % CSF Aβ42 Reduction After 30 mg/kg Dosing (Rat CSF Aβ42) |
| --- | --- | --- |
| 4.91 | CNC1CCCc2c(-c3ccc(-n4cnc(C)c4)c(OC)c3)noc21 (racemic) |  |
| 6.19 | COc1cc(-c2noc3c2CCCC3NCc2cc(F)cc(F)c2)ccc1-n1cnc(C)c1 (single isomer, unassigned) [drawing 33] | 7% |
| 6.40 | COc1cc(-c2noc3c2CCCC3Nc2ccc(F)cc2)ccc1-n1cnc(C)c1 (single isomer, unassigned) [drawing 26, N-(4-Fluorophenyl)-3-(3-methoxy-4-(4-methyl-1H-imidazol-1-yl)phenyl)-4,5,6,7-tetrahydrobenzo[d]isoxazol-7-amine] | 37% |
| 6.50 | COc1cc(-c2noc3c2CCCC3N(C)Cc2ccc(F)cc2)ccc1-n1cnc(C)c1 (racemic) |  |
| 6.51 | COc1cc(-c2noc3c2CCCC3NC2CCCCC2)ccc1-n1cnc(C)c1 (racemic) |  |
| 6.53 | COc1cc(-c2noc3c2CCCC3Oc2ccc(F)cc2)ccc1-n1cnc(C)c1 (racemic) [7-(4-Fluorophenoxy)-3-(3-methoxy-4-(4-methyl-1H-imidazol-1-yl)phenyl)-4,5,6,7-tetrahydrobenzo[d]isoxazole] |  |
| 6.69 | COc1cc(-c2noc3c2CCCC3Oc2cc(F)cc(F)c2)ccc1-n1cnc(C)c1 (racemic) |  |
| 6.82 | COc1cc(-c2noc3c2CCCC3(O)Cc2cc(F)cc(F)c2)ccc1-n1cnc(C)c1 (racemic) |  |
| 7.53 | COc1cc(-c2noc3c2CCCC3NCc2cc(F)cc(F)c2)ccc1-n1cnc(C)c1 (single isomer, unassigned) [drawing 34] | 20% |
